Assay results: patent US8114850B2, “Antiproliferative activity of G-rich oligonucleotides and method of using same to bind to nucleolin” (Advanced Cancer Therapeutics, LLC, priority 1999, dated 2012)

How the values were obtained:
DU145 cells = experiment: MTT cell growth assay, DU145 cells; type: cell-based, human; conditions: 15 uM on day 1, half the initial dose on days 2-4; 3′-propylamino oligonucleotides; vs water control; FIG. 1A
Description: (§1) Cells were plated at low density ([…] cells per well, depending on cell line) in the appropriate serum-supplemented medium in 96-well plates (one plate per MTT assay time point) and grown under standard conditions of cell culture. The following day (day 1) oligonucleotide, or water as control, was added to the culture medium to give a final concentration of 15 uM. Further oligonucleotide, equivalent to half the initial dose, was added to the culture medium on days two, three and four.
(§2) Cells were assayed using the MTT assay (Morgan (1998) Methods. Mol. Biol. 79, 179-183) on days one, three, five, seven and nine after plating. The culture medium was not changed throughout the duration of the experiment (which was the time required for untreated cells to grow to confluence). Experiments were performed in triplicate and bars represent the standard error of the data.

[1] = test system: MDA-MB-231 breast cancer cells; experiment: MTT cell growth assay, MDA-MB-231 cells; type: cell-based, human; conditions: for growth of MDA-MB-231 cells (MTT): 15 uM on day 1, half the initial dose on days 2-4, 3′-propylamino oligonucleotides, vs water control, FIG. 1B
Description: Cells were plated at low density ([…] cells per well, depending on cell line) in the appropriate serum-supplemented medium in 96-well plates (one plate per MTT assay time point) and grown under standard conditions of cell culture. The following day (day 1) oligonucleotide, or water as control, was added to the culture medium to give a final concentration of 15 uM. Further oligonucleotide, equivalent to half the initial dose, was added to the culture medium on days two, three and four. Cells were assayed using the MTT assay (Morgan (1998) Methods. Mol. Biol. 79, 179-183) on days one, three, five, seven and nine after plating. The culture medium was not changed throughout the duration of the experiment (which was the time required for untreated cells to grow to confluence). Experiments were performed in triplicate and bars represent the standard error of the data. For the experiment shown in FIG. 7A, MDA-MB-231 breast cancer cells (5×10^2 cells per well) were plated in a 96-well plate. After twenty-four hours, a single dose of oligonucleotide, or equal volume of PBS as a control, was added to the culture medium to a final concentration of 10 uM. Viable cells were assessed seven days after plating using the MTT assay. For the experiment using 3′-unmodified oligonucleotides (FIG. 7D), serum-supplemented medium was replaced by serum-free medium containing oligonucleotide (or serum-free medium alone in control wells). After incubation at 37° C. for four hours, fetal calf serum (Life Technologies, Inc.) was added to the medium to give 10% v/v.

HeLa cells = experiment: MTT cell growth assay, HeLa cells; type: cell-based, human; conditions: 15 uM on day 1, half the initial dose on days 2-4; 3′-propylamino oligonucleotides; vs water control; FIG. 1C
Description: as §1, §2

MCF-7 cells = experiment: MTT cell growth assay, MCF-7 cells; type: cell-based, human; conditions: 15 uM on day 1, half the initial dose on days 2-4; 3′-propylamino oligonucleotides; vs water control; FIG. 1D
Description: as §1, §2

[2] = biological target: T1, 106 kDa nuclear protein (p106, GRO-binding protein/nucleolin) (Homo sapiens, UniProt P19338); experiment: Southwestern blot of HeLa nuclear extracts; conditions: 32P-labeled oligonucleotide, 4° C.; FIG. 6D
T1 construct: HeLa nuclear extracts used in EMSAs were purchased from Promega Inc. (bandshift grade); host or cells: HeLa nuclear extract (bandshift grade), purchased
Description: Nuclear extracts were electrophoresed on a 8% polyacrylamide-SDS gel and transferred to polyvinylidene difluoride (PVDF) membrane by electroblotting using a Tris glycine/methanol (10% v/v) buffer. Immobilized proteins were denatured and renatured by washing for thirty minutes at 4° C. with 6 M guanidine. HCl followed by washes in 1:1, 1:2 and 1:4 dilutions of 6M guanidine in HEPES binding buffer (25 mM HEPES pH 7.9, 4 mM KCl, 3 mM MgCl2). The membrane was blocked by washing for one hour in a 5% solution of non-fat dried milk (NDM) in binding buffer.
Hybridization of the labeled oligonucleotide (1-4×10^6 cpm) took place for two hours at 4° C. in HEPES binding buffer supplemented with 0.25% NDM, 0.05% Nonidet P […] salmon sperm DNA and […] of an unrelated, mixed sequence 35-mer oligonucleotide (5′-[…] CTTCCTTCCTCTCCA-3′SEQ ID No: 19). Membranes were washed in binding buffer and visualized by autoradiography.
The molecular weight of the nuclear protein was more accurately determined by Southwestern blotting. HeLa nuclear extracts were electrophoresed on an 8% polyacrylamide-SDS gel and transferred to a PVDF membrane. The membrane was blocked and cut into strips. Each strip was incubated at 4° C. with a 32P-labeled G-rich oligonucleotide in the presence of unrelated unlabeled double stranded and single stranded DNA to block non-specific binding.

[3] = Detection of G-quartets by UV thermal denaturation/renaturation; type: physicochemical; conditions: absorbance at 295 nm; FIG. 4
Description: Oligonucleotides were resuspended in Tm buffer (20 mM Tris HCl, pH 8.0, 140 mM KCl, 2.5 mM MgCl2) at a concentration such that A260=0.6 (molar concentrations ranged from […]). Samples were annealed by boiling for five minutes and allowing to cool slowly to room temperature and overnight incubation at 4° C. Thermal denaturation/renaturation experiments were carried out using an Amersham Pharmacia Biotech Ultrospec 2000 instrument equipped with a Peltier effect heated cuvette holder and temperature controller (Amersham Pharmacia Biotech). Absorbance at 295 nm was monitored over a temperature range of 25-95 or 20-90° C. at a heating/cooling rate of 0.5° C./min. To investigate the formation of G-quartet structures by the G-rich oligonucleotides, a U.V. melting technique described by […] et al. (1998) FEBS Lett. 435, 74-78 was used. This method relies on the fact that dissociation of G-quartets leads to a decrease in absorbance at 295 nm and is reported to give a more reliable indication of intramolecular G-quartet formation than measurement at 260 nm.

T1 sequence (P19338 whole entry): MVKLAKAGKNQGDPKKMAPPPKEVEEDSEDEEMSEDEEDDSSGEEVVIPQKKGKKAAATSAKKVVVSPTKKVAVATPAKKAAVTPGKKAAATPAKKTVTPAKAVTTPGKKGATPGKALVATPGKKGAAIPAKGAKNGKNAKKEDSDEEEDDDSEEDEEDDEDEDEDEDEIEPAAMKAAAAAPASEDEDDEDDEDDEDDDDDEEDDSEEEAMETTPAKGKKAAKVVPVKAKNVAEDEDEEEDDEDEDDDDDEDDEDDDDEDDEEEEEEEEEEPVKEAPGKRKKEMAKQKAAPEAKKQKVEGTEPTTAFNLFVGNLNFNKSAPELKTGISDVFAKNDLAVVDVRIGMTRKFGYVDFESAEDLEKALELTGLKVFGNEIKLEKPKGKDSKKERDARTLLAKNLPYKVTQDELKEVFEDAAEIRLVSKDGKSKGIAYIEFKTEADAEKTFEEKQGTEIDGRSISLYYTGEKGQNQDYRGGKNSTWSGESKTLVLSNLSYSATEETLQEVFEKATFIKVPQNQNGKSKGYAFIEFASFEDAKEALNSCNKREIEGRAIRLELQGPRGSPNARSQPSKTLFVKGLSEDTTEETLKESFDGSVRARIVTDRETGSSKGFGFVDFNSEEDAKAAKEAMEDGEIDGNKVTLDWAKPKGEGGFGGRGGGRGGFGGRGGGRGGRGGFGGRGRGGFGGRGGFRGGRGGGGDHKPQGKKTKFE

Row | Substance | growth of DU145 cells (MTT) (DU145 cells) | growth of MDA-MB-231 cells (MTT) [1] | growth of HeLa cells (MTT) (HeLa cells) | growth of MCF-7 cells (MTT) (MCF-7 cells) | hybridization to protein band at 106 kDa (Southwestern blot) [2] | G-quartet formation (UV annealing curve) [3] | antiproliferative activity, MDA-MB-231 ([1]; single 10 uM dose, FIG. 7A)
1 | 5′-GTTGTTTGG GGTGGT-3′ (GTTGTTTGGGGTGGT; DNA, backbone not given here; further chemistry not fully specified) [GRO15A] | modulated proliferation | modulated proliferation | modulated proliferation | modulated proliferation | hybridized to a single protein band at 106 kDa | suggestive of G-quartet formation | –
2 | 5′-TTTGGTGGTGGTGG TTGTGGTGGTGGTGG-3′ [GR029A] | modulated proliferation | modulated proliferation | modulated proliferation | modulated proliferation | hybridized to a single protein band at 106 kDa | clearly indicating the presence of G-quartets | active
